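The compound was tested at five concentrations on cells cultured in 96-well plates, with a 48-hour exposure period. TGI: concentration producing complete growth inhibition.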
Legend:
Assay in all cases: NCI anticancer screen, dose series, 48 h
COLO 205 colon = test system: COLO 205 colon
DLD-1 colon = test system: DLD-1 colon
DMS 114 small cell lung = test system: DMS 114 small cell lung
DMS 273 small cell lung = test system: DMS 273 small cell lung
HCT-116 colon = test system: HCT-116 colon
HOP-18 NSCLC = test system: HOP-18 NSCLC
K-562 leukemia = test system: K-562 leukemia
KM20L2 colon = test system: KM20L2 colon
LXFL 529 NSCLC = test system: LXFL 529 NSCLC
M14 melanoma = test system: M14 melanoma
M19-MEL melanoma = test system: M19-MEL melanoma
NCI-H226 lung = test system: NCI-H226 lung
OVCAR-5 ovarian = test system: OVCAR-5 ovarian
RPMI-8226 leukemia = test system: RPMI-8226 leukemia
SNB-78 CNS = test system: SNB-78 CNS
SW-620 colon = test system: SW-620 colon
TK-10 renal = test system: TK-10 renal
XF 498 CNS = test system: XF 498 CNS
MDA-MB-435 = test system: MDA-MB-435

Row | Compound | TGI (COLO 205 colon) [µM] | TGI (DLD-1 colon) [µM] | TGI (DMS 114 small cell lung) [µM] | TGI (DMS 273 small cell lung) [µM] | TGI (HCT-116 colon) [µM] | TGI (HOP-18 NSCLC) [µM] | TGI (K-562 leukemia) [µM] | TGI (KM20L2 colon) [µM] | TGI (LXFL 529 NSCLC) [µM] | TGI (M14 melanoma) [µM] | TGI (M19-MEL melanoma) [µM] | TGI (NCI-H226 lung) [µM] | TGI (OVCAR-5 ovarian) [µM] | TGI (RPMI-8226 leukemia) [µM] | TGI (SNB-78 CNS) [µM] | TGI (SW-620 colon) [µM] | TGI (TK-10 renal) [µM] | TGI (XF 498 CNS) [µM] | TGI (MDA-MB-435) [µM]
1 | COC(=O)C1CCc2c1c(=O)n1c([nH]c3ccccc31)c2C#N (stereo not given) | > 100 | > 100 | > 100 | > 100 | > 100 | > 100 | > 100 | > 100 | > 100 | > 100 | > 100 | > 100 | > 100 | > 100 | > 100 | > 100 | > 100 | > 100 | –
2 | COP(=O)(OC)C(=O)N1N(c2ccc([N+](=O)[O-])cc2)C(=O)C(C)NC1(NNc1ccc([N+](=O)[O-])cc1)P(=O)(OC)OC (stereo not given) | > 100 | > 100 | > 100 | > 100 | > 100 | – | > 100 | > 100 | > 100 | > 100 | > 100 | > 100 | > 100 | > 100 | – | > 100 | > 100 | > 100 | –
3 | Nc1nc2c3nc(Nc4ccccc4)sc3nc(=S)n2c2sc(Nc3ccccc3)nc12 | > 100 | > 100 | > 100 | > 100 | > 100 | > 100 | > 100 | > 100 | 29.4 | > 100 | > 100 | > 100 | – | – | > 100 | > 100 | – | 4.25 | –
4 | N#Cc1cccc2c1Nc1ccccc1S2 | > 100 | > 100 | > 100 | > 100 | > 100 | > 100 | > 100 | > 100 | – | > 100 | > 100 | > 100 | > 100 | > 100 | > 100 | > 100 | > 100 | > 100 | –
5 | Cc1cn([C@@H]2C[C@@H]2CO)c(=O)[nH]c1=O | > 100 | – | – | – | > 100 | – | > 100 | – | – | > 100 | – | > 100 | > 100 | > 100 | – | > 100 | > 100 | – | > 100
6 | CC(=O)C(=[N+]=[N-])C(=O)N1CCOC1=O | > 10 | – | – | – | > 10 | – | > 10 | – | – | > 10 | – | > 10 | > 10 | > 10 | – | > 10 | > 10 | – | > 10
7 | O=C1NC(=O)C(F)(n2cc(F)c(=O)[nH]c2=O)C(O)N1 (stereo not given) | > 10 | – | – | – | > 10 | – | > 10 | – | – | > 10 | – | > 10 | > 10 | > 10 | – | > 10 | > 10 | – | > 10
8 | CCN(CC)c1cccc2c1/C(=N/O)CCCC2 | > 100 | – | > 100 | > 100 | > 100 | > 100 | > 100 | > 100 | > 100 | – | > 100 | > 100 | – | > 100 | > 100 | > 100 | > 100 | > 100 | –
9 | Cc1cc2c(c(C=Nc3ccccc3O)c1)OC1(C=C2)Oc2ccccc2C(=O)N1C (stereo not given) | 54.5 | – | – | – | 27.5 | – | 62.2 | – | – | 57.5 | – | 36.4 | 30 | 84.3 | – | 86.7 | 48 | – | 82
10 | CC(C)OC(=O)c1ccc(CCC2=CC(=O)C=CC2=O)cc1 | 22.1 | – | – | – | 27 | – | > 37.1 | – | – | 39 | – | 33.5 | 29.4 | 24.2 | – | 19.1 | 22.4 | – | 39.8
11 | O=C1CSC(/C=C/c2ccccc2)N1c1nc2cc3sc(N4C(=O)CSC4/C=C/c4ccccc4)nc3cc2s1 (stereo not given) | > 29.8 | – | – | – | > 100 | – | > 100 | – | – | > 100 | – | > 95.5 | > 100 | > 100 | – | > 100 | > 100 | – | > 100
12 | COc1ccc(C2=C(Cl)c3cc(OC)c(OC)cc3C2OC)cc1OC (stereo not given) | > 100 | 41.8 | > 100 | > 100 | > 100 | > 100 | 52.7 | > 100 | > 100 | > 100 | > 100 | > 100 | > 100 | > 100 | > 100 | 49.2 | > 100 | > 100 | –
13 | CC(C)OP(=O)(OC(C)C)/C(Cl)=N/Nc1ccc([N+](=O)[O-])cc1 | > 100 | > 100 | > 100 | > 100 | > 100 | – | > 100 | > 100 | > 100 | > 100 | > 100 | – | > 100 | > 100 | > 100 | > 100 | > 100 | > 100 | –
14 | C=C=C(CC1CCCCC1=O)S(=O)(=O)c1ccccc1 (stereo not given) | > 10 | – | – | – | > 4.94 | – | > 10 | – | – | > 10 | – | > 10 | > 10 | > 4.76 | – | > 9.53 | > 10 | – | > 10
15 | COC(=O)C(N)CCCC(N)C(=O)NC(C)C(=O)NC(CCC(=O)NCCNCCNc1c2ccccc2nc2cccc([N+](=O)[O-])c12)C(N)=O (stereo not given) | 20.4 | – | – | – | 24.5 | – | 20.7 | – | – | 26.2 | – | 39.4 | > 100 | 34.6 | – | 47.3 | > 94.3 | – | 20.1
16 | CC(=O)Nc1ccc(NCC(=O)Nn2cnc3ccc(S(=O)(=O)Nc4ccc(NC(C)=O)cc4)cc3c2=O)cc1 | > 100 | – | – | – | > 100 | – | > 100 | – | – | > 100 | – | > 100 | > 100 | > 100 | – | > 100 | > 100 | – | > 100

— PubChem BioAssay (NCI)
